For 77 compounds, Kd results are on record in patent publication US10160763B2, “WDR5 inhibitors and modulators” (Vanderbilt University, priority 2016, dated 2018).

The experiment concerns the target WDR5 (Δ23, residues 24-334) (Homo sapiens, UniProt P61964). As to the kind of experiment: biochemical. The following applies: Kd (M), FPA-based binding affinity at the WDR5 WIN site; IC50 converted to Kd by modified Cheng-Prusoff equation; average of two experiments.
`COc1cccc(C(=O)N(Cc2cc(-c3cn4c(n3)CCC4)ccc2F)CC2CC2)c1` [B90] displayed a Kd of 4.24e-05 M.

On to `COc1ccc(C(=O)N(Cc2cccc(-c3cn4c(n3)CCC4)c2)CC2CC2)cc1OC` [B59], for which the Kd is 6.18e-07 M.

Consider `O=C(NCc1ccccc1)NCc1cccc(-c2cn3c(n2)CCC3)c1` [B34], for which the Kd amounted to 2.71e-06 M. The figure for `CC(NC(=O)Cc1ccc(Cl)c(Cl)c1)c1cccc(-c2cn3c(n2)CCC3)c1` (centres unmarked) [B192] is 1.25e-07 M.

As for `CC(NC(=O)Cc1ccc(F)c(Cl)c1)c1cccc(-c2cn3c(n2)CCC3)c1` (centres unmarked) [B206], the dissociation constant (Kd) worked out at 1.35e-06 M.

The compound `COc1cc(C(=O)NCc2cc(-c3cn4c(n3)CCC4)ccc2N2CCOCC2C)ccc1C` (centres unmarked) [B203] came in with a Kd of 2.3e-08 M. Next, `COc1ccc(C(=O)N(Cc2cccc(-c3cn4c(n3)CCC4)c2)C(C)c2ccccc2)cc1OC` (centres unmarked) [B70]: 5.98e-06 M. Next, `O=C(Cc1cc(C(F)(F)F)cc(C(F)(F)F)c1)NCc1cccc(-c2cn3c(n2)CCC3)c1` [B134]: 4.59e-06 M; `CN(Cc1cccc(-c2cn3c(n2)CCC3)c1)C(=O)Cc1cc(Cl)cc(Cl)c1` [B71]: 6.12e-07 M; `NC(C(=O)NCc1cc(-c2cn3c(n2)CCC3)ccc1N1CCOCC1)c1ccccc1` (centres unmarked) [B218]: 1.79e-07 M. Next, `CC(=O)N1CCCC(C(=O)N(Cc2cc(-c3cn4c(n3)CCC4)ccc2N2CCOCC2)CC2CC2)C1` (centres unmarked) [B176]: 6.3e-08 M; `O=C(C1CCc2ccccc2C1)N(Cc1cccc(-c2cn3c(n2)CCC3)c1)CC1CC1` (centres unmarked) [B62]: 2.81e-06 M; `O=C(NCc1cccc(-c2cn3c(n2)CCC3)c1)c1ccc(O)nc1` [B26]: 2.68e-06 M. Regarding `NC(C(=O)NCc1cc(-c2cn3c(n2)CCC3)ccc1OC1CCC1)c1ccccc1` (centres unmarked) [B219], the dissociation constant (Kd) amounted to 3.83e-07 M. `O=C(NCc1cccc(-c2cn3c(n2)CCC3)c1)c1ccc(Cl)nc1` [B17]: the dissociation constant (Kd) came out at 1.86e-06 M. The figure for `O=C(Cc1ccc(Cl)c(F)c1)NCc1cccc(-c2cn3c(n2)CCC3)c1` [B82] is 5.02e-07 M; for `O=C(Cc1ccc(Cl)c(Cl)c1)NCc1cc(-c2cn3c(n2)CCC3)ccc1-c1ccccc1` [B111] it is 2e-08 M; for `O=C(NCc1cccc(-c2cn3c(n2)CCC3)c1)c1ccc2c(c1)OCO2` [B56] it is 1.18e-06 M. Consider `CC(C)N(Cc1cc(-c2cn3c(n2)CCC3)ccc1OC1CCC1)C(=O)Cc1ccc(Cl)c(Cl)c1` [B148], for which binding was characterised by a dissociation constant (Kd) of 1.4e-08 M. As for `O=C(NCc1cccc(-c2cn3c(n2)CCC3)c1)c1ccc(F)c(F)c1` [B166], the Kd is 5.8e-08 M. The figure for `CS(=O)(=O)N1CCCC(C(=O)NCc2cccc(-c3cn4c(n3)CCC4)c2)C1` (centres unmarked) [B186] is 3e-09 M; for `COc1cc(C(=O)NC(C)c2cc(-c3cn4c(n3)CCC4)ccc2N2CCOCC2)ccc1C` (centres unmarked) [B213] it is 4.7e-08 M. In turn, `CC(=O)NCc1cccc(C(=O)NCc2cccc(-c3cn4c(n3)CCC4)c2)c1` [B189] registered a Kd of 7.41e-07 M.

`O=C(NCc1cccc(-c2cn3c(n2)CCC3)c1)C1CCc2ccccc2C1` (centres unmarked) [B42]: the dissociation constant Kd came to 5.26e-07 M. The figure for `O=C(Cc1ccc(Cl)c(Cl)c1)NCc1cc(-c2cn3c(n2)CCC3)ccc1N1CCCCC1` [B101] is 2.75e-05 M. The figure for `O=C(NCc1cccc(-c2cn3c(n2)CCC3)c1)c1ccc(Cl)cc1Cl` [B4] is 3.9e-06 M; for `CCOc1cccc(C(=O)N(C)Cc2cccc(-c3cn4c(n3)CCC4)c2)c1` [B110] it is 1e-09 M. Next, `CN(Cc1cccc(-c2cn3c(n2)CCC3)c1)C(=O)Nc1cc(Cl)cc(Cl)c1` [B74]: 8.21e-07 M. Regarding `CC(C)N(Cc1cccc(-c2cn3c(n2)CCC3)c1)C(=O)Nc1cc(Cl)cc(Cl)c1` [B72], the dissociation constant (Kd) was found to be 3.01e-07 M.

In the case of `O=C(Cc1ccc(Cl)c(Cl)c1)N(Cc1cc(-c2cn3c(n2)CCC3)ccc1OCC1CC1)CC1CC1` [B100], binding was put at a Kd of 2e-07 M. Next, `CC(C(=O)NCc1cccc(-c2cn3c(n2)CCC3)c1)c1ccccc1` (centres unmarked) [B84]: 4.35e-07 M; `CC(=O)N1CCCC(C(=O)N(Cc2cccc(-c3cn4c(n3)CCC4)c2)CC2CC2)C1` (centres unmarked) [B58]: 7.9e-07 M; `O=C(Cc1ccc(F)c(Cl)c1)NCc1cc(-c2cn3c(n2)CCC3)ccc1N1CCOCC1` [B193]: 3.23e-06 M. The figure for `COc1cccc(C(=O)NCc2cc(-c3cn4c(n3)CCC4)ccc2-c2ccccc2)c1` [B126] is 5.7e-08 M; for `O=C(NCc1cccc(-c2cn3c(n2)CCC3)c1)C1CCCNC1` (centres unmarked) [B43] it is 6.3e-07 M. For `O=C(Cc1ccc2c(c1)CCO2)NCc1cccc(-c2cn3c(n2)CCC3)c1` [B153], the affinity, expressed as Kd, was 6.04e-07 M. On to `O=C(CC1CCCCC1)NCc1cccc(-c2cn3c(n2)CCC3)c1` [B20], for which the Kd was 3.63e-06 M.

Compound `O=C(CC12C[C@H]3C[C@@H](C1)C[C@@H](C2)C3)NCc1cccc(-c2cn3c(n2)CCC3)c1` [B107] came in with a Kd of 5.6e-08 M. Compound `COc1cccc(C(=O)NCc2cc(-c3cn4c(n3)CCC4)ccc2N2CCC(OC)C2)c1` (centres unmarked) [B178] yielded a Kd of 1.73e-06 M.

In the case of `CCC(C1CC1)N(Cc1cccc(-c2cn3c(n2)CCC3)c1)C(=O)c1cccc(OC)c1` (centres unmarked) [B87], the Kd worked out at 8.63e-07 M. Compound `COc1cccc(C(=O)N(CC2CC2)C(C)c2cccc(-c3cn4c(n3)CCC4)c2)c1` (centres unmarked) [B191] had a Kd of 1.85e-06 M. Consider `O=C(NCc1cc(-c2cn3c(n2)CCC3)ccc1N1CCOCC1)c1cc(Cl)ccn1` [B195], for which the Kd turned out to be 9.61e-07 M. Next, `Cc1cc(C(=O)N(C)Cc2cccc(-c3cn4c(n3)CCC4)c2)ccc1Cl` [B38]: 4.48e-07 M. For `O=C(/C=C/c1ccccc1)NCc1cccc(-c2cn3c(n2)CCC3)c1` [B12], binding was characterised by a dissociation constant (Kd) of 1.19e-06 M.

In the case of `COc1ccc(C(=O)N(Cc2cccc(-c3cn4c(n3)CCC4)c2)C(C2CC2)C2CC2)cc1OC` [B55], the Kd was 5.25e-06 M. The figure for `O=C(Cc1ccc(Cl)c(Cl)c1)NCc1cc(-c2cn3c(n2)CCC3)ccc1OC1CCCC1` [B109] is 1e-05 M; for `O=C(Cc1ccc(F)c(Cl)c1)NCc1cc(-c2cn3c(n2)CCC3)ccc1OC1CCC1` [B197] it is 2.17e-06 M; for `O=C(Cc1ccncc1)NCc1cccc(-c2cn3c(n2)CCC3)c1` [B123] it is 2.2e-08 M. Next, `COc1cccc(C(=O)N(Cc2cccc(-c3cn4c(n3)CCC4)c2)C(C)c2cccc(Cl)c2)c1` (centres unmarked) [B83]: 4.51e-07 M; `O=C(NCc1cccc(-c2cn3c(n2)CCC3)c1)c1cocn1` [B168]: 5.75e-07 M; `COc1cc(C(=O)NCc2cc(-c3cn4c(n3)CCC4)cnc2N2CCOCC2)ccc1C` [B223, N-((5-(6,7-dihydro-5H-pyrrolo[1,2-a]imidazol-2-yl)-2-morpholinopyridin-3-yl)methyl)-3-methoxy-4-methylbenzamide]: 9.1e-08 M.

The compound `COc1cc(C(=O)NC(c2cccc(-c3cn4c(n3)CCC4)c2)C(C)C)ccc1C` (centres unmarked) [B220, N-(1-(3-(6,7-Dihydro-5H-pyrrolo[1,2-a]imidazol-2-yl)phenyl)-2-methylpropyl)-3-methoxy-4-methylbenzamide] had a Kd of 2.04e-07 M.

Consider `COc1cc(C(=O)N(Cc2cc(-c3cn4c(n3)CCC4)ccc2N2CCOCC2)CC2CCCCC2)ccc1C` [B198], for which the dissociation constant Kd turned out to be 1.59e-07 M. Next, `O=C(C1CC1c1ccccc1)N(Cc1cccc(-c2cn3c(n2)CCC3)c1)CC1CC1` (centres unmarked) [B51]: 4.85e-07 M; `COc1ccc(C(=O)N(Cc2cccc(-c3cn4c(n3)CCC4)c2)Cc2ccc(F)c(F)c2)cc1OC` [B63]: 7.51e-07 M. Take `O=C(Cc1ccc(Cl)c(Cl)c1)NCc1cc(-c2cn3c(n2)CCC3)ccc1N1CCCC1` [B118]: binding was characterised by a dissociation constant (Kd) of 7.6e-08 M. Next, `Cc1cc(NC(=O)NCc2cccc(-c3cn4c(n3)CCC4)c2)ccc1Cl` [B45]: 3.91e-07 M; `CN(C)C(=O)CCC(=O)NCc1cccc(-c2cn3c(n2)CCC3)c1` [B124]: 2.25e-07 M. On to `CCOc1cccc(C(=O)N(Cc2cccc(-c3cn4c(n3)CCC4)c2)CC2CC2)c1` [B79], for which the equilibrium dissociation constant (Kd) came out at 4.91e-07 M.

The compound `O=C(NCc1cccc(-c2cn3c(n2)CCC3)c1)C(c1ccccc1)c1ccccc1` [B67] returned a Kd of 1.06e-06 M. Turning to `CC(C)N1CCCC(C(=O)NCc2cc(-c3cn4c(n3)CCC4)ccc2OC2CCC2)C1` (centres unmarked) [B199], the dissociation constant Kd is 6.3e-06 M. On to `Cn1cc(CC(=O)NCc2cccc(-c3cn4c(n3)CCC4)c2)c2ccccc21` [B121], for which the Kd turned out to be 2.78e-05 M. The figure for `O=C(Cc1cccc(Cl)c1)NCc1cccc(-c2cn3c(n2)CCC3)c1` [B133] is 6e-06 M.

The compound `Cc1ccc(C(=O)NCc2cccc(-c3cn4c(n3)CCC4)c2)cc1C(F)(F)F` [B130] yielded a Kd of 9.72e-07 M. The figure for `O=C(CCc1cccnc1)NCc1cccc(-c2cn3c(n2)CCC3)c1` [B30] is 3.36e-06 M; for `CC(C)(NC(=O)Cc1ccc(F)c(Cl)c1)c1cccc(-c2cn3c(n2)CCC3)c1` [B216] it is 5.99e-07 M; for `CC(=O)N1CCC(C(=O)NCc2cccc(-c3cn4c(n3)CCC4)c2)CC1` [B25, 1-Acetyl-N-(3-(6,7-dihydro-5H-pyrrolo[1,2-a]imidazol-2-yl)benzyl)piperidine-4-carboxamide] it is 1.37e-06 M.

The compound `CC(C)N(Cc1cccc(-c2cn3c(n2)CCC3)c1)C(=O)Cc1cc(Cl)cc(Cl)c1` [B73] yielded a Kd of 1.9e-06 M. Turning to `C[C@H](C(=O)N(Cc1cccc(-c2cn3c(n2)CCC3)c1)CC1CC1)c1ccccc1` [B61], the dissociation constant (Kd) stood at 6.45e-07 M. As to `COc1ccc(C(=O)N(CCc2ccccc2)Cc2cccc(-c3cn4c(n3)CCC4)c2)cc1OC` [B57], binding was put at a Kd of 4.46e-06 M. Next, `CCOc1cccc(C(=O)NCc2cccc(-c3cn4c(n3)CCC4)c2)c1` [B78]: 1.48e-07 M; `COc1ccc(C(=O)N(Cc2cccc(-c3cn4c(n3)CCC4)c2)C(C)c2cccc(Cl)c2)cc1OC` (centres unmarked) [B68]: 3.72e-06 M; `O=C(Cc1cccc(Cl)c1Cl)NCc1cccc(-c2cn3c(n2)CCC3)c1` [B149]: 8.75e-07 M. The figure for `O=C(Cc1cccnc1)NCc1cccc(-c2cn3c(n2)CCC3)c1` [B152] is 1.23e-06 M; for `CN1CCN(c2ccc(-c3cn4c(n3)CCC4)cc2CNC(=O)Cc2ccc(Cl)c(Cl)c2)CC1` [B142] it is 1.2e-07 M. Next, `CCC(=O)N1CCCC(C(=O)NCc2cccc(-c3cn4c(n3)CCC4)c2)C1` (centres unmarked) [B181]: 1e-05 M; `CC(C)C(NC(=O)Cc1ccc(F)c(Cl)c1)c1cccc(-c2cn3c(n2)CCC3)c1` (centres unmarked) [B221]: 1.17e-07 M.

Usually Kd stands for the constant that tells how readily two partners part at equilibrium. The low end stands for higher affinity, the high end for lower affinity.
